Laboratory results reported in patent US20040009988A1 (priority 2000, published 2004).

Tests used:
human MTP = human MTP (Homo sapiens, UniProt P55157); test: human MTP activity assay (SPA, 3H-triolein transfer between liposomes); type: biochemical; conditions: MTP-mediated 3H-triolein transfer from donor to acceptor liposomes, 25 min at 37° C., streptavidin-SPA beads
Method: The ability of the compounds of this invention to inhibit human MTP activity is measured by an in vitro assay where MTP tranfers 3H-triolein between phosphatidylcholine liposomes. The specificity of the compounds of the invention is established by comparing the effects on apoB-100 and apoprotein A-1 production. A specificity of at least 100 is preferred.
The human MTP activity assay was established using SPA technology. Donor liposomes were prepared with 3H-triolein and phosphatidylcholine, while acceptor liposomes contained biotinylated phosphatidylethanolamine and phosphatidylcholine. The MTP-mediated 3H-triolein transfer onto acceptor liposomes was allowed by a 25 min incubation at 37° C., and quantified by the addition of streptavidin-SPA beads.

Sequence of human MTP (P55157 19-894): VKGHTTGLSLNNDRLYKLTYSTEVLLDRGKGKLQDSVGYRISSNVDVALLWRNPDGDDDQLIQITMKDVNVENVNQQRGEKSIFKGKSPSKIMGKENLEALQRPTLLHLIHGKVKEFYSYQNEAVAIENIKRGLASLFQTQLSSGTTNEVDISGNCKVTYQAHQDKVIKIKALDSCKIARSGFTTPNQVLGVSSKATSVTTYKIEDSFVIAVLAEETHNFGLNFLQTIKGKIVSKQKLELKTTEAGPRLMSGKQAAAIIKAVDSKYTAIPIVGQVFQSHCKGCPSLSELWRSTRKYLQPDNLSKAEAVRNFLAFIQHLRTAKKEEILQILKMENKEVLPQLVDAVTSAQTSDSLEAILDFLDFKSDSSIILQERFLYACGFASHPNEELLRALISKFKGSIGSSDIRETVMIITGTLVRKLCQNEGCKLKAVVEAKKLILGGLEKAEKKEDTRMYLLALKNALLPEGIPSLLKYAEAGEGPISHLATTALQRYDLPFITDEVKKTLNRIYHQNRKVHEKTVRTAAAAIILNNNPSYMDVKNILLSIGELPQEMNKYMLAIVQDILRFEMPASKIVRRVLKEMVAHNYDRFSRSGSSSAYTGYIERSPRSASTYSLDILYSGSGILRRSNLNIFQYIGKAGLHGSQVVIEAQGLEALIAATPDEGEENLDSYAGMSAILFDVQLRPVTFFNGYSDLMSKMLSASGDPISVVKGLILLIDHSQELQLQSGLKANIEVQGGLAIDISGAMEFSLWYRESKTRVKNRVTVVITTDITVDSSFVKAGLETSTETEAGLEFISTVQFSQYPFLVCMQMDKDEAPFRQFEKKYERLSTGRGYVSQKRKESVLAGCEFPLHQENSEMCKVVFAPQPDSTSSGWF
Sequence of human MTP (P07237 18-508 partner): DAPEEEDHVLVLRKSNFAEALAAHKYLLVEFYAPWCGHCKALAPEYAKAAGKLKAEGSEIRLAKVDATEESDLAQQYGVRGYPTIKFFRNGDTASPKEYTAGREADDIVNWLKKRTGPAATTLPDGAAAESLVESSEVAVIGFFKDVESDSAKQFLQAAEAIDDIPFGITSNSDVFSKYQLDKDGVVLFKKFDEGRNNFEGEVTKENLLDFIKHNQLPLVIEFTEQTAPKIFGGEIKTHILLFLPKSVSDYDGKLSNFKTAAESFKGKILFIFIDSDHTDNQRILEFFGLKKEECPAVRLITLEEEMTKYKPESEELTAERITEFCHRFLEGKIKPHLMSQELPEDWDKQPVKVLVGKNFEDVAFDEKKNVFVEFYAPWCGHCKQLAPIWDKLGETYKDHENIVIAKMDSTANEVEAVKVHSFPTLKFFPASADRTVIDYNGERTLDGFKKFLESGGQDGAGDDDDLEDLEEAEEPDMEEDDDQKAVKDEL

IC50 (human MTP) | melting point | SMILES
0.16 nM | 151 °C | CC(C)c1ccc(-c2c(C(=O)Nc3ccc(N4CCN(Cc5cccc(C#N)c5)CC4)nc3)cccc2C(C)C)cc1 [Example 15, 4′,6-Diisopropyl-biphenyl-2-carboxylic acid [2-(4-(3-cyano-benzyl)-piperazin-1-yl)-pyridin-5-yl]-amide]
– | 142 to 144 °C | Cc1cccc(C(=O)Nc2ccc(N3CCN(Cc4ccc[nH]4)CC3)nc2)c1-c1ccc(C(F)(F)F)cc1 [Example 6, 6-Methyl4′-trifluoromethyl-biphenyl-2-carboxylic acid [2-(4-(1H-pyrrol-2-ylmethyl)piperazin-1-yl)-pyridin-5-yl]-amide]
– | 126 to 128 °C | CCCN1CCN(c2ccc(NC(=O)c3cccc(C(C)C)c3-c3ccc(C(C)C)cc3)cn2)CC1 [Example 23, 4′,6-Diisopropyl-biphenyl-2-carboxylic acid-[2-(4-propyl-piperazin-1-yl)-pyridin-5-yl]-amide]
– | 124 °C | C=C(C)N1CCN(c2ccc(NC(=O)c3cccc(C(C)C)c3-c3ccc(C(C)C)cc3)cn2)CC1 [Example 25, 4′,6-Diisopropyl-biphenyl-2-carboxylic acid-[2-(4-(propen-2-yl)-piperazin-1-yl)-pyridin-5-yl]-amide]
– | 169 °C | CC(C)c1ccc(-c2c(C(=O)Nc3ccc(N4CCN(CC(N)=O)CC4)nc3)cccc2C(C)C)cc1 [Example 4, 4′,6-Diisopropyl-biphenyl-2-carboxylic acid [2-(4-carbamoylmethyl-piperazin-1-yl)-pyridin-5-yl]-amide]
– | 168 °C | N#Cc1cccc(CN2CCN(c3ccc(NC(=O)c4ccccc4-c4ccc(C(F)(F)F)cc4)cn3)CC2)c1 [Example 17, 4′-Trifluoromethyl-biphenyl-2-carboxylic acid [2-(4-(3-cyano-benzyl)-piperazin-1-yl)-pyridin-5-yl]-amide]
– | 152 to 154 °C | CC(C)c1ccc(-c2c(C(=O)Nc3ccc(N4CCN(C)CC4)nc3)cccc2C(C)C)cc1 [Example 24, 4′,6-Diisopropyl-biphenyl-2-carboxylic acid-[2-(4-methyl-piperazin-1-yl)-pyridin-5-yl]-amide]
– | 154 to 156 °C | Cc1cccc(C(=O)Nc2ccc(N3CCN(Cc4cccc(C#N)c4)CC3)nc2)c1-c1ccc(C(C)C)cc1 [Example 19, 4′-Isopropyl-6-methyl-biphenyl-2-carboxylic acid [2-(4-(3-cyano-benzyl)-piperazin-1-yl)-pyridin-5-yl]-amide]
– | 192 to 194 °C | Cc1noc(-c2cccc(CN3CCN(c4ccc(NC(=O)c5ccccc5-c5ccc(C(F)(F)F)cc5)cn4)CC3)c2)n1 [Example 9, 4′-Trifluoromethyl-biphenyl-2-carboxylic acid [2-(4-(3-(3-methyl-[1,2,4]oxadiazol-5-yl)-benzyl)-piperazin-1-yl)-pyridin-5-yl]-amide]
– | 194 to 196 °C | COc1cccc(C(=O)Nc2ccc(N3CCN(Cc4cccc(C#N)c4)CC3)nc2)c1-c1ccc(C(C)C)cc1 [Example 18, 4′-Isopropyl-6-methoxy-biphenyl-2-carboxylic acid [2-(4-(3-cyano-benzyl)-piperazin-1-yl)-pyridin-5-yl]-amide]
– | 158 to 160 °C | Cc1ccc(C(=O)Nc2ccc(N3CCN(Cc4cccc(C#N)c4)CC3)nc2)c(-c2ccc(C(F)(F)F)cc2)c1 [Example 22, 5-Methyl-4′-trifluoromethyl-biphenyl-2-carboxylic acid [2-(4-(3-cyano-benzyl)-piperazin-1-yl)-pyridin-5-yl]-amide]
– | 136 to 138 °C | COc1cccc(C(=O)Nc2ccc(N3CCN(Cc4cccc(-c5nc(C)no5)c4)CC3)nc2)c1-c1ccc(C(C)C)cc1 [Example 12, 4′-Isopropyl-6-methoxy-biphenyl-2-carboxylic acid [2-(4-(3-(3-methyl-[1,2,4]oxadiazol-5-yl)-benzyl)-piperazin-1-yl)-pyridin-5-yl]-amide]
– | 150 to 152 °C | Cc1noc(-c2cccc(CN3CCN(c4ccc(NC(=O)c5cccc(C)c5-c5ccc(C(C)C)cc5)cn4)CC3)c2)n1 [Example 10, 4′-Isopropyl-6-methyl-biphenyl-2-carboxylic acid [2-(4-(3-(3-methyl-[1,2,4]oxadiazol-5-yl)-benzyl)-piperazin-1-yl)-pyridin-5-yl]-amide]
– | 180 to 181 °C | Cc1cccc(C(=O)Nc2ccc(N3CCN(CC(N)=O)CC3)nc2)c1-c1ccc(C(F)(F)F)cc1 [Example 2, 6-Methyl-4′-trifluoromethyl-biphenyl-2-carboxylic acid [2-(4-carbamoylmethyl-piperazin-1-yl)-pyridin-5-yl]-amide]
– | 136 °C | CC(C)c1ccc(-c2c(C(=O)Nc3ccc(N4CCN(C(C)C)CC4)nc3)cccc2C(C)C)cc1 [Example 26, 4′,6-Diisopropyl-biphenyl-2-carboxylic acid-[2-(4-(isopropyl)-piperazin-1-yl)-pyridin-5-yl]-amide]
– | 197 to 199 °C | COc1cccc(C(=O)Nc2ccc(N3CCN(Cc4ccc[nH]4)CC3)nc2)c1-c1ccc(C(C)C)cc1 [Example 7, 4′-Isopropyl-6-methoxy-biphenyl-2-carboxylic acid [2-(4-(1H-pyrrol-2-ylmethyl)piperazin-1-yl)-pyridin-5-yl]-amide]
0.1 nM | 130 °C | Cc1cccc(C(=O)Nc2ccc(N3CCN(Cc4ccc[nH]4)CC3)nc2)c1-c1ccc(C(C)C)cc1 [Example 5, 4′-Isopropyl-6-methyl-biphenyl-2-carboxylic acid [2-(4-(1H-pyrrol-2-ylmethyl)piperazin-1-yl)-pyridin-5-yl]-amide]
0.3 nM | 200 to 202 °C | Cc1cccc(C(=O)Nc2ccc(N3CCN(CC(N)=O)CC3)nc2)c1-c1ccc(C(C)C)cc1 [Example 1, 4′-Isopropyl-6-methyl-biphenyl-2-carboxylic acid [2-(4-carbamoylmethyl-piperazin-1-yl)-pyridin-5-yl]-amide]
– | 210 to 212 °C | COc1cccc(C(=O)Nc2ccc(N3CCN(CC(N)=O)CC3)nc2)c1-c1ccc(C(C)C)cc1 [Example 3, 4′-Isopropyl-6-methoxy-biphenyl-2-carboxylic acid [2-(4-carbamoylmethyl-piperazin-1-yl)-pyridin-5-yl]-amide]
– | 161 to 163 °C | Cc1ccc(C(=O)Nc2ccc(N3CCN(Cc4cccc(C#N)c4)CC3)nc2)c(-c2ccc(C(C)C)cc2)c1 [Example 21, 4′-Isopropyl-5-methyl-biphenyl-2-carboxylic acid [2-(4-(3-cyano-benzyl)-piperazin-1-yl)-pyridin-5-yl]-amide]
– | 164 to 166 °C | Cc1cccc(C(=O)Nc2ccc(N3CCN(Cc4cccc(C#N)c4)CC3)nc2)c1-c1ccc(C(F)(F)F)cc1 [Example 20, 6-Methyl-4′-trifluoromethyl-biphenyl-2-carboxylic acid [2-(4-(3-cyano-benzyl)-piperazin-1-yl)-pyridin-5-yl]-amide]
– | 125 °C | Cc1noc(-c2cccc(CN3CCN(c4ccc(NC(=O)c5cccc(C(C)C)c5-c5ccc(C(C)C)cc5)cn4)CC3)c2)n1 [Example 13, 4′,6-Diisopropyl-biphenyl-2-carboxylic acid [2-(4-(3-(3-methyl-[1,2,4]oxadiazol-5-yl)-benzyl)-piperazin-1-yl)-pyridin-5-yl]-amide]
– | 149 °C | O=C(Nc1ccc(N2CCN(Cc3ccco3)CC2)nc1)c1ccccc1-c1ccc(C(F)(F)F)cc1 [Example 14, 4′-Trifluoromethyl-biphenyl-2-carboxylic acid [2-(4-(furan-2-ylmethyl)piperazin-1-yl)-pyridin-5-yl]-amide]

SMILES | IC50 (human MTP) | melting point
C=CCN1CCN(c2ccc(NC(=O)c3cccc(C(C)C)c3-c3ccc(C(C)C)cc3)cn2)CC1 [Example 25] | < 0.1 nM | –
